Reference: patent publication US11622967B2 (SUVEN LIFE SCIENCES LIMITED, priority 2018, dated 2023)
Structures can show the parent of a compound that is named as a salt.

Experiments:
[1] = test system: orexin-B-saporin lesioned male Wistar rats; experiment: Sleep and wake profile by telemetric EEG in orexin-B-saporin lesioned rats (narcolepsy model); assay type: in vivo, rat
Method: Rats were anesthetized with 4% isoflurane (Baxter India Private Limited) and maintained on 2% isoflurane for entire duration of surgery. Under isoflurane anesthesia, rats were placed into a stereotaxic instrument and received bilateral microinjections of 0.5 μL containing 490 ng of orexin-B-saporin conjugate (Advanced Targeting System, San Diego, Calif., USA) or saline solution in the lateral hypothalamus (coordinates: AP: −3.5 mm; ML: ±1.5 mm; DV: −8.7 mm).^3 Microinjections were performed using a glass micropipette (20 μm at the tip). Analgesic and antibiotic treatment were administered at the end of this procedure.
(§1) After injection of the orexin-B-Saporin, telemetric transmitter (Model F40-EET; DSI, St. Paul, Minn., USA) was implanted into intraperitoneal cavity of the rat and leads were tunneled subcutaneously to head. One pair of electrodes were implanted epidurally into the frontal cortex region using stainless steel screws (CMA Microdialysis, Stockholm, Sweden) at coordinates of AP+2.0 mm, ML±2.2 mm (Paxinos and Watson, 2004)^3 for recording of EEG and electrodes were fixed to the skull with dental acrylic cement (DENTALON® plus). The second set of lead wires was implanted into the neck nuchal muscle to record EMG. Incision was closed using non absorbable sutures. After a surgical recovery of about 3 weeks, animals were acclimatized to the handling procedures and were given a mock dosing for 3 days before the first experimental day.
On the day of study, transmitter was switched on using magnet and animals were transferred on to the receiver along with the home cage. Recording was started 1 h before lights-off using Ponemah (Version 5.2) software. […] Recording was continued for 8 h post treatment. EEG and EMG were collected as primary signals and sampled at 500 Hz. Whereas, temperature and activity were sampled at 250 Hz. The data was stored for off-line analysis using NeuroScore software (Version 3.0).
Statistical analysis: EEG data was scored with automated standard sleep scoring protocols using Neuroscore. Rodent EEG and EMG data was manually classified into one of three sleep/wake states: awake, REM (Rapid eye movement/Paradoxical sleep), or NREM (Non-rapid eye movement/slow wave sleep) according to visual analysis of EEG frequency and amplitude characteristics and EMG activity using 10 s epochs. Waking activity was defined as relatively low-amplitude EEG activity with low power in the low-frequency bands, accompanied by moderate to high level EMG activity. NREM was defined as generally high-amplitude EEG activity with greater power in the low-frequency bands from 0.5-4 Hz, accompanied by minimal EMG activity. REM sleep was characterized by moderate and constant amplitude EEG activity focused in the θ (6-9 Hz) range with no (or only sporadic) EMG activity. […]

male Wistar rats = experiment: Sleep and wake profile by telemetric EEG in male Wistar rats; assay type: in vivo, rat; conditions: 10 and 30 mg/kg, p.o., first 4 hours post dosing (FIG. 2)
From the text: as §1, with “Rats were anesthetized with isoflurane (Baxter India Private Limited; 4% in oxygen for induction; 2% for maintenance) and were fixed into” for “After injection of”, “stereotaxic frame (Stoelting, Ill., USA) to perform surgery. An incision was made to reveal bregma from which coordinates were taken. Telemetric” for “orexin-B-Saporin, telemetric”, “2004)” for “2004)^3”, “electromyogram (EMG).” for “EMG.”, “minimum 2” for “about 3”
On the day of study, transmitter was switched on using magnet and animals were transferred on to the receiver along with the home cage. […]
(§2) Statistical analysis: EEG data was scored with automated standard sleep scoring protocols using Neuroscore. […]

male C57BL/6J mice = experiment: Sleep and wake profile by telemetric EEG in male C57BL/6J mice; assay type: in vivo, mouse; conditions: 10 and 30 mg/kg, p.o., first 4 hours post dosing (FIG. 3)
From the text: Mice were anesthetized with isoflurane (Baxter India Private Limited; 4% in oxygen for induction; 2% for maintenance) and were fixed into the stereotaxic frame (Stoelting, Ill., USA) to perform surgery. An incision was made to reveal bregma from which coordinates were taken. Telemetric transmitter (Model F20-EET; DSI, St. Paul, Minn., USA) was implanted into intraperitoneal cavity of the […] and leads were tunneled subcutaneously to head. One pair of flexible spring electrodes were implanted epidurally into the frontal cortex region at coordinates of AP+1.0 mm, ML±2.0 mm (Franklin and Paxinos, 20074) for recording of EEG and electrodes were fixed to the skull with dental acrylic cement (DENTALON® plus). The second set of lead wires was implanted into the neck nuchal muscle to record EMG. Incision was closed using non absorbable sutures. After a surgical recovery of minimum 2 weeks, animals were acclimatized to the handling procedures and were given a mock dosing for 3 days before the first experimental day.
On the day of study, transmitter was switched on using magnet and animals were transferred on to the receiver along with the home cage. Recording was started 3 h after the lights-on using Ponemah (Version 5.2) software. […] Recording was continued for 6 h post treatment. […]
as §2

[2] = test system: cortical levels of dopamine and norepinephrine; experiment: Dopamine and norepinephrine modulation in prefrontal cortex, microdialysis; assay type: in vivo, rat; conditions: male Wistar rats, 3-30 mg/kg, p.o. (FIG. 7)
From the text: (§3) Male Wistar rats (240-300 g body weight) were stereotaxically implanted with a microdialysis guide cannula in prefrontal cortex (PFC; AP: +3.2 mm, ML: −0.5 mm, DV: −1.0 mm) under isoflurane anesthesia. Co-ordinates were taken according to atlas for the rat brain (Paxinos and Watson 2004) with reference points taken from bregma and vertical from the skull. The rats were allowed to recover individually for four days in a round bottom Plexiglas bowl with free access to feed and water.
(§4) After surgical recovery of 4 days, male Wistar rats were connected to dual quartz lined two-channel liquid swivel (Instech, UK) on a counter balance lever arm, which allowed unrestricted movements of the animal. […]
Quantitation of dopamine and norepinephrine: Monoamines in dialysate were derivatized with dansyl chloride and quantified using LC-MS/MS based method in calibration ranges of 0.07-15 nmol/L for all […] analytes.
(§5) Statistical analysis: All microdialysis data for dopamine and norepinephrine were plotted as percent change from mean dialysate basal concentrations with 100% defined as the average of four pre-dose values. […] Area under the curve (AUC) values for percent change in neurotransmitter levels were calculated and the statistical significance between the mean AUC value were compared against vehicle treatment using one-way ANOVA followed by Dunnett's test. […]

[3] = biological target: histamine-3 receptor (in-vivo) (Rattus norvegicus (Rat), UniProt Q9QYN8); experiment: (R)-α-methylhistamine induced dipsogenia assay; conditions: rats, oral, RAMH 2.5 mg/kg s.c.
Chain of histamine-3 receptor (in-vivo) (Q9QYN8 whole entry): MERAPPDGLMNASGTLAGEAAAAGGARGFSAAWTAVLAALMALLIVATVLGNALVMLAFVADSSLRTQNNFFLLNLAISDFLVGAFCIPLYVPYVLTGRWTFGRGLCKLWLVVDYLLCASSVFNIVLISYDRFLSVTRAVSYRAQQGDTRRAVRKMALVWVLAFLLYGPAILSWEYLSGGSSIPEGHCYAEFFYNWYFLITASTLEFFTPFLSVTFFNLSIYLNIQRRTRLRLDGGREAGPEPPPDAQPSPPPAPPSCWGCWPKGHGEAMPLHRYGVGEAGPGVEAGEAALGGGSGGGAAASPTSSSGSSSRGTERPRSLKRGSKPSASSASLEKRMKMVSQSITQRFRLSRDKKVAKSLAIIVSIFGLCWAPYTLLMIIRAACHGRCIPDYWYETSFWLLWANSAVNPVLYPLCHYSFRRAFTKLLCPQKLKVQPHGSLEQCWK
Method: The experiment consisted of 3 days. The animals were individually housed in their home cages. 24 h water consumption was recorded for 2 days. Rats were randomized according to average of 2 days water consumption. […] Statistical analysis: Data was compared and assessed by one-way ANOVA followed by Dunnett's post hoc test by using graph pad prism software package.

[4] = test system: cortical histamine levels; experiment: Histamine modulation in prefrontal cortex, microdialysis; assay type: in vivo, rat
From the text: as §3, §4
Quantitation of histamine: Histamine concentrations in dialysates were quantified using post-column derivatization with o-phthalaldehyde employing HPLC coupled to fluorescence detector and analysis was carried out in the calibration range of 33-640 fmol/20 μL
as §5, with “histamine was” for “dopamine and norepinephrine were”, “five” for “four”, “histamine” for “neurotransmitter”

O=C(CN1CCOCC1)Nc1ccc(OC2CCN(C3CCC3)CC2)cc1 [SUVN-G3031, N-[4-(1-Cyclobutylpiperidin-4-yloxy)phenyl]-2-(morpholin-4-yl)acetamidedihydrochloride]
cataplectic (direct transition of wake to REM) episodes ([1]; orexin-B-saporin lesioned rats (FIG. 5)): decreased | wake period compared to vehicle ([1]; orexin-B-saporin lesioned rats, first 4 hours post dosing (FIG. 4a)): significant increase | REM sleep ([1]; orexin-B-saporin lesioned rats, first 4 hours post dosing (FIG. 4b)): significant decrease | NREM sleep ([1]; orexin-B-saporin lesioned rats, first 4 hours post dosing (FIG. 4c)): no effect | time spent in wake period compared to vehicle (male Wistar rats): significantly increased | time spent in wake period compared to vehicle (male C57BL/6J mice): significant increase | cortical levels of dopamine [2]: significant increase | cortical levels of norepinephrine [2]: significant increase | effect on (R)-α-methylhistamine induced dipsogenia (water consumption) ([3]; at 60 min (FIG. 1a)): blocked | effect on (R)-α-methylhistamine induced dipsogenia (water consumption) ([3]; at 120 min (FIG. 1b)): blocked | mean AUC of percent change in histamine levels compared to vehicle ([4]; male Wistar rats, 0.3, 1 and 10 mg/kg, p.o. (FIG. 6)): statistically significant | cortical histamine levels ([4]; male Wistar rats, 0.3-10 mg/kg, p.o.): significant increase
